Literature values, collected in patent US20130171237A1, “ARIPIPRAZOLE COMPOSITIONS AND METHODS FOR ITS TRANSDERMAL DELIVERY” (priority 2010, published 2013).

O=C1CCc2ccc(OCCCCN3CCN(c4cccc(Cl)c4Cl)CC3)cc2N1 [ARPZ, Aripiprazole]
solubility in water: practically insoluble in water
